Earlier results, collected in PubChem BioAssay AID1259409 (Chemical Carcinogenesis Research Information System (CCRIS), 2018).

Tested on: rodent chemically induced tumor inhibition, incidence and multiplicity
Assay: CCRIS tumor inhibitor studies

C/C1=C\C=C(\C(C)C)[C@@H](O)C/C(C)=C/CC/C(C)=C/CC1
tumour outcome (control, treated, inhibition, significance) (Carcinogen: N-METHYL-N-NITROSOUREA, 684-93-5, Dose [Inhibitor]: 0.01% IN DIET BEGINNING 1 WK POST LAST CARCINOGEN DOSE (STUDY DURATION: 26 WK), Route [Inhibitor]: ORAL, Species: RAT, Strain/Sex: CD-FISCHER/FEMALE, Target Tissue: Type of Lesion: LARGE INTESTINE: TUMOR, Dose [Carcinogen]: 2 MG IN WATER 3/WK FOR 3 WK, Promoter: NONE USED): 22/26 (85%), 15/26 (58%), 32%, p<0.01-p<0.05 | tumour outcome (control, treated, inhibition, significance) (Carcinogen: N-METHYL-N-NITROSOUREA, 684-93-5, Dose [Inhibitor]: 0.01% IN DIET BEGINNING WEEK 1 AND CONTINUING FOR DURATION OF STUDY (STUDY DURATION: 26 WK), Route [Inhibitor]: ORAL, Species: RAT, Strain/Sex: CD-FISCHER/FEMALE, Target Tissue: Type of Lesion: LARGE INTESTINE: TUMOR, Dose [Carcinogen]: 2 MG IN WATER 3/WK FOR WEEKS 1-3, Promoter: NONE USED): 22/26 (85%), 13/26 (50%), 41%, p<0.01-p<0.05 | tumour outcome (control, treated, inhibition, significance) (Carcinogen: N-NITROSOBIS(2-HYDROXYPROPYL)AMINE, 53609-64-6, Dose [Inhibitor]: 0, 0.01% IN DIET FOR 27 WK (STUDY DURATION: 27 WK), Route [Inhibitor]: ORAL, Species: HAMSTER, Strain/Sex: SYRIAN/FEMALE, Target Tissue: Type of Lesion: PANCREAS: TUMOR, Dose [Carcinogen]: 500 MG/KG IN OLIVE OIL 1/WK FOR 27 WK, Promoter: NONE USED): 11/22 (50%), 4/20 (20%), 60%, p<0.05

C#Cc1ccc2ccc3cccc4ccc1c2c34
tumour outcome (control, treated, inhibition, significance) (Carcinogen: 7,12-DIMETHYLBENZ[A]ANTHRACENE, 57-97-6, Dose [Inhibitor]: 0, 0.044 NMOL IN 0.2 ML ACETONE APPLIED TO BACK ONCE 5 MIN PRIOR TO CARCINOGEN DOSE (STUDY DURATION: 26 WK), Route [Inhibitor]: DERMAL, Species: MOUSE, Strain/Sex: SENCAR/FEMALE, Target Tissue: Type of Lesion: SKIN: PAPILLOMA, Dose [Carcinogen]: 10 NMOL IN 0.2 ML ACETONE APPLIED TO BACK ONCE.): 100%, 93%, 7%, not calculated | tumour outcome (control, treated, inhibition, significance) (Carcinogen: 7,12-DIMETHYLBENZ[A]ANTHRACENE, 57-97-6, Dose [Inhibitor]: 0, 0.44 NMOL IN 0.2 ML ACETONE APPLIED TO BACK ONCE 5 MIN PRIOR TO CARCINOGEN DOSE (STUDY DURATION: 20 WK), Route [Inhibitor]: DERMAL, Species: MOUSE, Strain/Sex: SENCAR/FEMALE, Target Tissue: Type of Lesion: SKIN: PAPILLOMA, Dose [Carcinogen]: 10 NMOL IN 0.2 ML ACETONE APPLIED TO BACK ONCE.): 100%, 50%, 50%, not calculated | outcome (Carcinogen: 7,12-DIMETHYLBENZ[A]ANTHRACENE, 57-97-6, Dose [Inhibitor]: 0, 0.44 NMOL IN 0.2 ML ACETONE APPLIED TO BACK ONCE 5 MIN PRIOR TO CARCINOGEN DOSE (STUDY DURATION: 26 WK), Route [Inhibitor]: DERMAL, Species: MOUSE, Strain/Sex: SENCAR/FEMALE, Target Tissue: Type of Lesion: SKIN: PAPILLOMA, Dose [Carcinogen]: 10 NMOL IN 0.2 ML ACETONE APPLIED TO BACK ONCE.): 100%, 100%, 0, not calculated | tumour outcome (control, treated, inhibition, significance) (Carcinogen: 7,12-DIMETHYLBENZ[A]ANTHRACENE, 57-97-6, Dose [Inhibitor]: 0, 4.4 NMOL IN 0.2 ML ACETONE APPLIED TO BACK ONCE 5 MIN PRIOR TO CARCINOGEN DOSE (STUDY DURATION: 26 WK), Route [Inhibitor]: DERMAL, Species: MOUSE, Strain/Sex: SENCAR/FEMALE, Target Tissue: Type of Lesion: SKIN: PAPILLOMA, Dose [Carcinogen]: 10 NMOL IN 0.2 ML ACETONE APPLIED TO BACK ONCE.): 100%, 83%, 17%, not calculated | tumour outcome (control, treated, inhibition, significance) (Carcinogen: 7,12-DIMETHYLBENZ[A]ANTHRACENE, 57-97-6, Dose [Inhibitor]: 0, 22 NMOL IN 0.2 ML ACETONE APPLIED TO BACK ONCE 5 MIN PRIOR TO CARCINOGEN DOSE (STUDY DURATION: 26 WK), Route [Inhibitor]: DERMAL, Species: MOUSE, Strain/Sex: SENCAR/FEMALE, Target Tissue: Type of Lesion: SKIN: PAPILLOMA, Dose [Carcinogen]: 10 NMOL IN 0.2 ML ACETONE APPLIED TO BACK ONCE.): 100%, 60%, 40%, not calculated | tumour outcome (control, treated, inhibition, significance) (Carcinogen: 7,12-DIMETHYLBENZ[A]ANTHRACENE, 57-97-6, Dose [Inhibitor]: 0, 44 NMOL IN 0.2 ML ACETONE APPLIED TO BACK ONCE 5 MIN PRIOR TO CARCINOGEN DOSE (STUDY DURATION: 26 WK), Route [Inhibitor]: DERMAL, Species: MOUSE, Strain/Sex: SENCAR/FEMALE, Target Tissue: Type of Lesion: SKIN: PAPILLOMA, Dose [Carcinogen]: 10 NMOL IN 0.2 ML ACETONE APPLIED TO BACK ONCE.): 100%, 35%, 65%, not calculated | tumour outcome (control, treated, inhibition, significance) (Carcinogen: 7,12-DIMETHYLBENZ[A]ANTHRACENE, 57-97-6, Dose [Inhibitor]: 0, 440 NMOL IN 0.2 ML ACETONE APPLIED TO BACK ONCE 5 MIN PRIOR TO CARCINOGEN DOSE (STUDY DURATION: 20 WK), Route [Inhibitor]: DERMAL, Species: MOUSE, Strain/Sex: SENCAR/FEMALE, Target Tissue: Type of Lesion: SKIN: PAPILLOMA, Dose [Carcinogen]: 10 NMOL IN 0.2 ML ACETONE APPLIED TO BACK ONCE.): 100%, 24%, 76%, not calculated | tumour outcome (control, treated, inhibition, significance) (Carcinogen: 7,12-DIMETHYLBENZ[A]ANTHRACENE, 57-97-6, Dose [Inhibitor]: 0, 4400 NMOL IN 0.2 ML ACETONE APPLIED TO BACK ONCE., Route [Inhibitor]: DERMAL, Species: MOUSE, Strain/Sex: SENCAR/FEMALE, Target Tissue: Type of Lesion: SKIN: PAPILLOMA, Dose [Carcinogen]: 10 NMOL IN 0.2 ML ACETONE APPLIED TO BACK ONCE.): 100%, 0%, 100%, not calculated | tumour outcome (control, treated, inhibition, significance) (Carcinogen: BENZO[A]PYRENE, 50-32-8, Dose [Inhibitor]: 0, 22 NMOL IN 0.2 ML ACETONE APPLIED TO BACK ONCE 5 MIN PRIOR TO CARCINOGEN DOSE (STUDY DURATION: 26 WK), Route [Inhibitor]: DERMAL, Species: MOUSE, Strain/Sex: SENCAR/FEMALE, Target Tissue: Type of Lesion: SKIN: PAPILLOMA, Dose [Carcinogen]: 200 NMOL IN 0.2 ML ACETONE APPLIED TO BACK ONCE.): 100%, 91%, 9%, not calculated | tumour outcome (control, treated, inhibition, significance) (Carcinogen: BENZO[A]PYRENE, 50-32-8, Dose [Inhibitor]: 0, 44 NMOL IN 0.2 ML ACETONE APPLIED TO BACK ONCE 5 MIN PRIOR TO CARCINOGEN DOSE (STUDY DURATION: 26 WK), Route [Inhibitor]: DERMAL, Species: MOUSE, Strain/Sex: SENCAR/FEMALE, Target Tissue: Type of Lesion: SKIN: PAPILLOMA, Dose [Carcinogen]: 200 NMOL IN 0.2 ML ACETONE APPLIED TO BACK ONCE.): 100%, 96%, 4%, not calculated | tumour outcome (control, treated, inhibition, significance) (Carcinogen: BENZO[A]PYRENE, 50-32-8, Dose [Inhibitor]: 0, 440 NMOL IN 0.2 ML ACETONE APPLIED TO BACK ONCE 5 MIN PRIOR TO CARCINOGEN DOSE (STUDY DURATION: 26 WK), Route [Inhibitor]: DERMAL, Species: MOUSE, Strain/Sex: SENCAR/FEMALE, Target Tissue: Type of Lesion: SKIN: PAPILLOMA, Dose [Carcinogen]: 200 NMOL IN 0.2 ML ACETONE APPLIED TO BACK ONCE.): 100%, 74%, 26%, not calculated | tumour outcome (control, treated, inhibition, significance) (Carcinogen: BENZO[A]PYRENE, 50-32-8, Dose [Inhibitor]: 0, 4400 NMOL IN 0.2 ML ACETONE APPLIED TO BACK ONCE 5 MIN PRIOR TO CARCINOGEN DOSE (STUDY DURATION: 20 WK), Route [Inhibitor]: DERMAL, Species: MOUSE, Strain/Sex: SENCAR/FEMALE, Target Tissue: Type of Lesion: SKIN: PAPILLOMA, Dose [Carcinogen]: 200 NMOL IN 0.2 ML ACETONE APPLIED TO BACK ONCE.): 75%, 59%, 21%, not calculated | tumour outcome (control, treated, inhibition, significance) (Carcinogen: BENZO[A]PYRENE, 50-32-8, Dose [Inhibitor]: 0, 4400 NMOL IN 0.2 ML ACETONE APPLIED TO BACK ONCE 5 MIN PRIOR TO CARCINOGEN DOSE (STUDY DURATION: 26 WK), Route [Inhibitor]: DERMAL, Species: MOUSE, Strain/Sex: SENCAR/FEMALE, Target Tissue: Type of Lesion: SKIN: PAPILLOMA, Dose [Carcinogen]: 200 NMOL IN 0.2 ML ACETONE APPLIED TO BACK ONCE.): 100%, 71%, 29%, not calculated | tumour outcome (control, treated, inhibition, significance) (Carcinogen: BENZO[A]PYRENE, 50-32-8, Dose [Inhibitor]: 0, 22000 NMOL IN 0.2 ML ACETONE APPLIED TO BACK ONCE 5 MIN PRIOR TO CARCINOGEN DOSE (STUDY DURATION: 20 WK), Route [Inhibitor]: DERMAL, Species: MOUSE, Strain/Sex: SENCAR/FEMALE, Target Tissue: Type of Lesion: SKIN: PAPILLOMA, Dose [Carcinogen]: 200 NMOL IN 0.2 ML ACETONE APPLIED TO BACK ONCE.): 75%, 35%, 53%, not calculated | tumour outcome (control, treated, inhibition, significance) (Carcinogen: BENZO[A]PYRENE, 50-32-8, Dose [Inhibitor]: 0, 44000 NMOL IN 0.2 ML ACETONE APPLIED TO BACK ONCE 5 MIN PRIOR TO CARCINOGEN DOSE (STUDY DURATION: 20 WK), Route [Inhibitor]: DERMAL, Species: MOUSE, Strain/Sex: SENCAR/FEMALE, Target Tissue: Type of Lesion: SKIN: PAPILLOMA, Dose [Carcinogen]: 200 NMOL IN 0.2 ML ACETONE APPLIED TO BACK ONCE.): 75%, 22%, 71%, not calculated | tumour outcome (control, treated, inhibition, significance) (Carcinogen: N-METHYL-N'-NITRO-N-NITROSOGUANIDINE, 70-25-7, Dose [Inhibitor]: 0, 4400 NMOL IN 0.2 ML ACETONE APPLIED TO BACK ONCE 5 MIN PRIOR TO CARCINOGEN DOSE (STUDY DURATION: 20 WK), Route [Inhibitor]: DERMAL, Species: MOUSE, Strain/Sex: SENCAR/FEMALE, Target Tissue: Type of Lesion: SKIN: PAPILLOMA, Dose [Carcinogen]: 2500 NMOL IN 0.2 ML ACETONE APPLIED TO BACK ONCE.): 78%, 78%, 0%, not significant
